Experiments:
[1] = pH of the simplified relaxing composition; assay type: physicochemical
Protocol: (§1) A simplified relaxing composition was prepared, containing, as relaxing active agent, 1,1-dimethylbiguanide (Registry Number [1115-70-4]) at a concentration of 0.75M in water. The pH of the composition was 13.6. The composition was applied to naturally curly/frizzy African hair for 15 minutes at a temperature of 30° C.
as §1, with “of 0.5M” for “of 0.75M”, “was 13.5. This” for “was 13.6. The”, “for 25” for “for 15”
(§2) A simplified relaxing composition was prepared, containing as relaxing active agent, 1,3,4,6,7,8-hexahydro-2H-pyrimido[1,2-a]pyrimidine (Registry Number [5807-14-7]) at a concentration of 0.7M in water. The pH of the composition was 13.5. This composition was applied to naturally curly/frizzy African hair for 15 minutes at a temperature of 30° C.
as §2, with “0.5M” for “0.7M”, “13.4.” for “13.5.”, “25” for “15”

[2] = Relaxing of naturally curly/frizzy African hair with a simplified aqueous relaxing composition
Protocol: as §1
as §1, with “of 0.5M” for “of 0.75M”, “was 13.5. This” for “was 13.6. The”, “for 25” for “for 15”
as §2
as §2, with “0.5M” for “0.7M”, “13.4.” for “13.5.”, “25” for “15”

[3] = 0.5M in water (Examples 2 and 4)

| pH of the composition [1, 3] | pH of the composition ([1]; 0.7M in water (Example 3)) | pH of the composition ([1]; 0.75M in water (Example 1)) | SMILES | hair relaxing result (relaxing, combing/styling, feel) ([2]; 0.5M in water, pH 13.4, applied 25 minutes at 30° C. (Example 4)) | hair relaxing result (relaxing, combing/styling, feel) ([2]; 0.7M in water, pH 13.5, applied 15 minutes at 30° C. (Example 3)) | hair relaxing result (relaxing, combing/styling, feel) ([2]; 0.5M in water, pH 13.5, applied 25 minutes at 30° C. (Example 2)) | hair relaxing result (relaxing, combing/styling, feel) ([2]; 0.75M in water, pH 13.6, applied 15 minutes at 30° C. (Example 1)) |
| --- | --- | --- | --- | --- | --- | --- | --- |
| 13.4 | 13.5 |  | C1CN=C2NCCCN2C1 [1,3,4,6,7,8-hexahydro-2H-pyrimido[1,2-a]pyrimidine] | efficiently relaxed, easy to comb and style, and felt soft | efficiently relaxed, easy to comb and style, and felt soft |  |  |
| 13.5 |  | 13.6 | CN(C)C(=N)NC(=N)N [1,1-dimethylbiguanide] |  |  | efficiently relaxed, easy to comb and style, and felt soft | efficiently relaxed, easy to comb and style, and felt soft |

Reference: patent publication US20050136017A1, “Hair relaxing composition comprising at least one non-hydroxide imine” (priority 2003, published 2005)
